Experiments:
[1] = test system: Gli-luciferace activity in the SUFU-KO-light cells; assay: SUFU-KO-Light assay, inhibition of Gli-luciferase activity; assay type: cell-based; settings: read-out: IC50 (μM) SUFU-KO-Light; inhibition of Gli-luciferase activity; listed as Isis-11 (+isomer/E1)
From the text: IC50 SUFO-KO-Light values are for inhibition of Gli-luciferace activity in the SUFU-KO-light cells developed by the James Chen laboratory at Stanford University.

MB002 cells = assay: MTT assay, cell proliferation; assay type: cell-based; settings: MB002, read-out: Dose E1
SARS-CoV-2 = settings: SARS-CoV-2-infected Vero E6 cells; 6 concentrations, 48 hours; XTT
[2] = Mouse PK evaluation, plasma, IV; settings: CD-1 mice; for concentration at 0.083 h / concentration at 0.25 h / concentration at 0.5 h / concentration at 1 h / concentration at 2 h / concentration at 4 h / concentration at 8 h / concentration at 24 h: Plasma concentration; for AUC(0-t): AUClast
[3] = CD-1, mouse, in vivo, 3 mg/kg, Mean, 3 mg/kg IV
[4] = CD-1, mouse, in vivo, 3 mg/kg, Mouse 1, 3 mg/kg IV
[5] = CD-1, mouse, in vivo, 3 mg/kg, Mouse 2, 3 mg/kg IV
[6] = CD-1, mouse, in vivo, 3 mg/kg, Mouse 3, 3 mg/kg IV

## CN(C)CCCn1c(N)nc2ccc3c(c21)CC(CN(C)C)O3 (single isomer, unassigned) [Compound E1]
[1]
  IC50: 5 µM
MB002 cells
  IC50: 16.5 µM
SARS-CoV-2
  effect on viral replication over the tested concentration range: no effect on viral replication
[2]; 3 mg/kg IV
  AUC_%Extrap_obs, Mean: 20.8%
  AUC_%Extrap_obs, Mouse 1: 25.7%
  AUC_%Extrap_obs, Mouse 2: 20.8%
  AUC_%Extrap_obs, Mouse 3: 15.9%
  AUClast/D, Mean: 116
  AUClast/D, Mouse 1: 107
  AUClast/D, Mouse 2: 108
  AUClast/D, Mouse 3: 132
  C0, Mean: 664 ng/mL
  C0, Mouse 1: 619 ng/mL
  C0, Mouse 2: 624 ng/mL
  C0, Mouse 3: 749 ng/mL
  Cl_obs, Mean: 115 mL/min/kg
  Cl_obs, Mouse 1: 116 mL/min/kg
  Cl_obs, Mouse 2: 122 mL/min/kg
  Cl_obs, Mouse 3: 106 mL/min/kg
  Vss_obs, Mean: 90 L/kg
  Vss_obs, Mouse 1: 104 L/kg
  Vss_obs, Mouse 2: 96.2 L/kg
  Vss_obs, Mouse 3: 68.3 L/kg
[2]; 3 mg/kg IV, 0.5 h
  Plasma concentration, Mouse 1: 45.5 ng/mL
[2]; 3 mg/kg IV, 1 h
  Plasma concentration, Mouse 1: 21.4 ng/mL
[2]; 3 mg/kg IV, 2 h
  Plasma concentration, Mouse 1: 13.4 ng/mL
[2]; 3 mg/kg IV, 24 h
  Plasma concentration, Mouse 1: 10.0 ng/mL
  Plasma concentration, Mouse 3: 4.33 ng/mL
[2]; [3]
  concentration at 0.083 h: 387 ng/mL
  concentration at 0.25 h: 131 ng/mL
  concentration at 4 h: 13.5 ng/mL
  concentration at 8 h: 7.3 ng/mL
[2]; CD-1, mouse, in vivo, 3 mg/kg, Mean, 3 mg/kg IV, 0.5 h
  concentration at 0.5 h: 59.1 ng/mL
[2]; CD-1, mouse, in vivo, 3 mg/kg, Mean, 3 mg/kg IV, 1 h
  concentration at 1 h: 42.9 ng/mL
[2]; CD-1, mouse, in vivo, 3 mg/kg, Mean, 3 mg/kg IV, 2 h
  concentration at 2 h: 17.8 ng/mL
[2]; CD-1, mouse, in vivo, 3 mg/kg, Mean, 3 mg/kg IV, 24 h
  concentration at 24 h: 6.1 ng/mL
[2]; [4]
  concentration at 0.083 h: 352 ng/mL
  concentration at 0.25 h: 113 ng/mL
  concentration at 4 h: 13.3 ng/mL
  concentration at 8 h: 5.5 ng/mL
[2]; [5]
  concentration at 0.083 h: 367 ng/mL
  concentration at 0.25 h: 126 ng/mL
  concentration at 4 h: 12.9 ng/mL
  concentration at 8 h: 6.2 ng/mL
[2]; CD-1, mouse, in vivo, 3 mg/kg, Mouse 2, 3 mg/kg IV, 0.5 h
  concentration at 0.5 h: 60.9 ng/mL
[2]; CD-1, mouse, in vivo, 3 mg/kg, Mouse 2, 3 mg/kg IV, 1 h
  concentration at 1 h: 51.8 ng/mL
[2]; CD-1, mouse, in vivo, 3 mg/kg, Mouse 2, 3 mg/kg IV, 2 h
  concentration at 2 h: 20.7 ng/mL
[2]; CD-1, mouse, in vivo, 3 mg/kg, Mouse 2, 3 mg/kg IV, 24 h
  concentration at 24 h: 4.11 ng/mL
[2]; [6]
  concentration at 0.083 h: 443 ng/mL
  concentration at 0.25 h: 154 ng/mL
  concentration at 4 h: 14.3 ng/mL
  concentration at 8 h: 10.2 ng/mL
[2]; CD-1, mouse, in vivo, 3 mg/kg, Mouse 3, 3 mg/kg IV, 0.5 h
  concentration at 0.5 h: 71 ng/mL
[2]; CD-1, mouse, in vivo, 3 mg/kg, Mouse 3, 3 mg/kg IV, 1 h
  concentration at 1 h: 55.5 ng/mL
[2]; CD-1, mouse, in vivo, 3 mg/kg, Mouse 3, 3 mg/kg IV, 2 h
  concentration at 2 h: 19.2 ng/mL
[2]; CD-1, mouse, in vivo, iv, 3 mg/kg, AUCInf, Mouse 3, 3 mg/kg IV
  AUC(0-inf): 470 ng·h/mL
[2]; CD-1, mouse, in vivo, iv, 3 mg/kg, Mean, 3 mg/kg IV
  AUC(0-t): 347 ng·h/mL
[2]; CD-1, mouse, in vivo, iv, 3 mg/kg, Mouse 1, 3 mg/kg IV
  AUC(0-t): 321 ng·h/mL
[2]; CD-1, mouse, in vivo, iv, 3 mg/kg, Mouse 2, 3 mg/kg IV
  AUC(0-t): 324 ng·h/mL
[2]; CD-1, mouse, in vivo, iv, 3 mg/kg, Mouse 3, 3 mg/kg IV
  AUC(0-t): 395 ng·h/mL
[2]; CD-1, mouse, in vivo, iv, 3 mg/kg, MRTInf_obs, Mouse 3, 3 mg/kg IV
  MRT inf: 10.7 h
[2]; CD-1, mouse, in vivo, iv, 3 mg/kg, T1/2, Mouse 3, 3 mg/kg IV
  half-life: 12 h
